Reference: patent US11427539B2, “Beta-hydroxy heterocyclic amines and their use in the treatment of hyperglycaemia” (ATROGI AB, priority 2017, dated 2022)
Counter-ions that a name gives are not always drawn. Like-named read-outs stand apart in the source and are kept apart here.

Assays:
[1] = tested on: Differentiated L6-myotubes; assay: Glucose uptake in differentiated L6-myotubes (3H-2-deoxy-glucose); assay type: cell-based; conditions: for Emax: read-out: Biological example 1: glucose uptake, activity compared to that of isoproterenol; for Biological example 1: glucose uptake, activity compared to that of isoproterenol: Hydrochloride
[2] = tested on: Intracellular cAMP levels in differentiated cells (L6-myotubes); assay: Measurement of intracellular cAMP levels (alpha screen cAMP kit); assay type: cell-based; conditions: for Emax: 0.25 h, read-out: Biological example 2: intracellular cAMP levels, activity compared to that of isoproterenol
Procedure: L6-myoblasts were grown in Dulbecco's Modified Eagle's Medium (DMEM) containing 4.5 g/l glucose supplemented with 10% fetal bovine serum, 2 mM L-Glutamine, 50 U/ml penicillin, 50 μg/ml streptomycin and 10 mM HEPES. Cells were plated at 1×10^5 cells per ml in 24-well plates. After reaching 90% confluence the cells were grown in medium containing 2% FBS for 7 days where upon cells differentiated into myotubes. Differentiated cells were serum-starved over night and stimulated with agonist, final concentration 1×10-^5, for 15 min in stimulation buffer (HBSS supplemented with 1% BSA, 5 mM HEPES and 1 mM IBMX, pH 7.4) The medium was then aspirated and to end the reaction 100 μL of 95% EtOH was added to each well of a 24-well plate and cells were kept in −20° C. over night. The EtOH was let to evaporate and 500 μL of lysis buffer (1% BSA, 5 mM HEPES and 0.3% Tween-20, pH 7.4) was added to each well before put in −80° C. for 30 min and then kept in −20° C. Intracellular cAMP levels were detected using an alpha screen cAMP kit (6760635D from Perkin Elmer). The activity for each compound is compared to that of isoproterenol.

[3] = agonist final concentration 1×10^−5, L6-myotubes, 3H-2-deoxy-glucose uptake, relative to isoproterenol
[4] = agonist final concentration 1×10-^5, 15 min, differentiated cells, relative to isoproterenol

C[C@H]1CC[C@@H]([C@H](O)c2cccc(O)c2)N1 (racemic) [Example 9, Racemic mixture of 3-((R)-Hydroxy((2S,5S)-5-methylpyrrolidin-2-yl)methyl)-phenol Acetate and 3-((S)-Hydroxy((2R,5R)-5-methylpyrrolidin-2-yl)methyl)phenol Acetate]
Emax [1, 3]: 50 to 75% | Emax [2, 4]: < 25%

C[C@@H]1CC[C@H]([C@H](O)c2cccc(O)c2)N1 (racemic) [Example 10, Racemic Mixture of 3-((R)-Hydroxy((2R,5R)-5-methylpyrrolidin-2-yl)methyl)-phenol Acetate and 3-((S)-Hydroxy((2S,5S)-5-methylpyrrolidin-2-yl)methyl)phenol Acetate]
Emax [1, 3]: > 75% | Emax [2, 4]: < 25%

C[C@H]1CC[C@@H]([C@H](O)c2ccccc2)N1 (racemic) [Example 11, Racemic mixture of (R)-((2S,5S)-5-Methylpyrrolidin-2-yl)(phenyl)methanol and (S)-((2R,5R)-5-Methylpyrrolidin-2-yl)(phenyl)methanol]
Emax [1]: 25 to 50% | Emax [2]: < 25%

C[C@@H]1CC[C@H]([C@H](O)c2ccccc2)N1 (racemic) [Example 12, Racemic mixture of (R)-((2R,5R)-5-Methylpyrrolidin-2-yl)(phenyl)methanol and (S)-((2S,5S)-5-Methylpyrrolidin-2-yl)(phenyl)methanol]
Emax [1]: 50 to 75% | Emax [2]: < 25%

CCCC1CCC[C@H](C(O)c2cccc(O)c2)N1 (stereo in doubt) [Example 19, 3-((R)-Hydroxy((2R,6R)-6-propylpiperidin-2-yl)methyl)phenol Hydrochloride]
Emax [1, 3]: 25 to 50% | Emax [2, 4]: < 25%

CCC[C@@H]1CCCC([C@@H](O)c2cccc(O)c2)N1 (stereo in doubt) [Example 33, 3-((S)-hydroxy((2S,6R)-6-propylpiperidin-2-yl)methyl)phenol Hydrochloride]
Biological example 1: glucose uptake, activity compared to that of isoproterenol [1, 3]: ++ (between 75 and 50%) | Biological example 2: intracellular cAMP levels, activity compared to that of isoproterenol [2, 4]: − (less than 25%)

CCC[C@H]1CC[C@H](C(O)c2cccc(O)c2)N1 (stereo in doubt) [Example 46, 3-((R)-hydroxy((2R,5S)-5-propylpyrrolidin-2-yl)methyl)phenol]
Emax [1, 3]: 50 to 75% | Emax [2, 4]: < 25%

CCC[C@@H]1CCC[C@H]([C@H](O)c2cccc(F)c2)N1 [Example 1, (R)-(3-Fluorophenyl)((2R,6R)-6-propylpiperidin-2-yl)methanol]
Emax [1, 3]: 25 to 50% | Emax [2, 4]: < 25%

CCC[C@H]1CCC[C@H]([C@H](O)c2cccc(F)c2)N1 [Example 2, (R)-(3-Fluorophenyl)((2R,6S)-6-propylpiperidin-2-yl)methanol]
Emax [1, 3]: > 75% | Emax [2, 4]: < 25%

CCC[C@H]1CCC[C@H]([C@H](O)c2cc(F)cc(F)c2)N1 [Example 3, (R)-(3,5-Difluorophenyl)((2R,6S)-6-propylpiperidin-2-yl)methanol]
Emax [1, 3]: > 75% | Emax [2, 4]: < 25%

CCC[C@H]1CCC[C@H]([C@H](O)c2ccc(F)c(F)c2)N1 [Example 4, (R)-(3,4-Difluorophenyl)((2R,6S)-6-propylpiperidin-2-yl)methanol]
Emax [1, 3]: 50 to 75% | Emax [2, 4]: < 25%

CCC[C@H]1CCC[C@H]([C@H](O)c2cccc(O)c2)N1 [Example 5, 3-((R)-Hydroxy((2R,6S)-6-propylpiperidin-2-yl)methyl)phenol Acetate]
Emax [1, 3]: > 75% | Emax [2, 4]: < 25%

CCC[C@@H]1CCC[C@H]([C@H](O)c2cccc(O)c2)N1 [Example 6, 3-((R)-Hydroxy((2R,6R)-6-propylpiperidin-2-yl)methyl)phenol]
Emax [1, 3]: 50 to 75% | Emax [2, 4]: < 25%

CCC[C@@H]1CC[C@H]([C@H](O)c2cccc(F)c2)N1 [Example 7, (R)-(3-Fluorophenyl)((2R,5R)-5-propylpyrrolidin-2-yl)methanol Acetate]
Emax [1, 3]: > 75% | Emax [2, 4]: < 25%

CCC[C@@H]1CC[C@H]([C@H](O)c2cccc(O)c2)N1 [Example 8, 3-((R)-Hydroxy((2R,5R)-5-propylpyrrolidin-2-yl)methyl)phenol]
Emax [1, 3]: > 75% | Emax [2, 4]: 25 to 50%

CCC[C@@H]1CCC[C@H]([C@@H](O)c2cccc(F)c2)N1 [Example 13, (S)-(3-Fluorophenyl)((2R,6R)-6-propylpiperidin-2-yl)methanol]
Emax [1, 3]: 50 to 75% | Emax [2, 4]: < 25%

CCC[C@@H]1CCC[C@H]([C@@H](O)c2cccc(O)c2)N1 [Example 14, 3-((S)-Hydroxy((2R,6R)-6-propylpiperidin-2-yl)methyl)phenol Hydrochloride]
Biological example 1: glucose uptake, activity compared to that of isoproterenol [1, 3]: + (between 50 and 25%) | Emax [2, 4]: < 25%

CCC[C@@H]1CCC[C@H]([C@H](O)c2ccc(F)cc2)N1 [Example 15, (R)-(4-Fluorophenyl)((2R,6R)-6-propylpiperidin-2-yl)methanol]
Emax [1, 3]: 50 to 75% | Emax [2, 4]: < 25%

CCC[C@@H]1CCC[C@H]([C@H](O)c2ccccc2F)N1 [Example 16, (R)-(2-Fluorophenyl)((2R,6R)-6-propylpiperidin-2-yl)methanol]
Emax [1, 3]: 50 to 75% | Emax [2, 4]: < 25%

CCC[C@@H]1CCC[C@H]([C@@H](O)c2ccccc2F)N1 [Example 17, (S)-(2-Fluorophenyl)((2R,6R)-6-propylpiperidin-2-yl)methanol hydrochloride]
Emax [1, 3]: 25 to 50% | Emax [2, 4]: < 25%

CCC[C@H]1CCC[C@H]([C@@H](O)c2cccc(F)c2)N1 [Example 18, (S)-(3-Fluorophenyl)((2R,6S)-6-propylpiperidin-2-yl)methanol]
Emax [1, 3]: 50 to 75% | Emax [2, 4]: < 25%

CCC[C@H]1CCC[C@H]([C@H](O)c2cccc(Cl)c2)N1 [Example 20, (R)-(3-Chlorophenyl)((2R,6S)-6-propylpiperidin-2-yl)methanol hydrochloride]
Emax [1, 3]: 25 to 50% | Emax [2, 4]: < 25%

CCC[C@H]1CCC[C@H]([C@@H](O)c2cccc(Cl)c2)N1 [Example 21, (S)-(3-Chlorophenyl)((2R,6S)-6-propylpiperidin-2-yl)methanol hydrochloride]
Emax [1, 3]: 25 to 50% | Emax [2, 4]: < 25%

CCC[C@H]1CCC[C@H]([C@H](O)c2ccccc2F)N1 [Example 22, (R)-(2-Fluorophenyl)((2R,6S)-6-propylpiperidin-2-yl)methanol]
Emax [1, 3]: 50 to 75% | Emax [2, 4]: < 25%

CCC[C@H]1CCC[C@H]([C@H](O)c2ccccc2Cl)N1 [Example 24, (R)-(2-Chlorophenyl)((2R,6S)-6-propylpiperidin-2-yl)methanol]
Emax [1, 3]: 25 to 50% | Emax [2, 4]: < 25%

CCC[C@H]1CCC[C@H]([C@H](O)c2ccc(F)cc2)N1 [Example 25, (R)-(4-Fluorophenyl)((2R,6S)-6-propylpipehdin-2-yl)methanol]
Emax [1, 3]: 50 to 75% | Emax [2, 4]: < 25%

CCC[C@H]1CCC[C@H]([C@@H](O)c2cc(F)cc(F)c2)N1 [Example 27, (S)-(3,5-Difluorophenyl)((2R,6S)-6-propylpiperidin-2-yl)methanol acetate]
Emax [1, 3]: 25 to 50% | Emax [2, 4]: < 25%

CCC[C@H]1CCC[C@H]([C@@H](O)c2ccc(F)c(F)c2)N1 [Example 28, (S)-(3,4-Difluorophenyl)((2R,6S)-6-propylpiperidin-2-yl)methanol]
Emax [1, 3]: 25 to 50% | Emax [2, 4]: < 25%
